Experimental data published in patent US11434195B2, “Compositions and methods for treatment of central nervous system tumors” (UNIVERSITY OF FLORIDA RESEARCH FOUNDATION, INC., priority 2017, dated 2022).
“Also recorded” adds a separate entry of the source. Structures can show the parent of a compound that is named as a salt. Where two headings read alike, the source gives them in different places.

What was measured:
[1] = system: primary human hepatocytes; experiment: Survival of primary human hepatocytes; format: cell-based; details: up to 50 μM
Description: The cell integrity and structural architecture were not altered following incubation with AIPs for a week (see FIG. 11B).

[2] = system: adherent CA1 human glioblastoma multiforme cells; experiment: Viability/proliferation of adherent CA1 glioblastoma cells (MTS); format: cell-based; details: for IC50: Homo sapiens
Description: In addition, glioma cells were cultured (adherent) in DMEM/F12 medium with 10% FBS to attain about 70% confluency. AIP (ranging from about 1 μM to about 100 μM) was added once or twice as above for 24 hours, 48 hours, or 72 hours and analyzed at these time points for proliferation, cell death and markers.
Ales were screened in patient glioblastoma cells CA1 cells proliferating in adherent cultures. Briefly, cells were cultured in DMEM/F12 medium with 10% FBS to attain about 70% confluency. AIP1, AIP2, or vehicle (control) were added for 24 hours and analyzed for proliferation and survival. […] Cell viability/proliferation was measured by MTS added for additional 2-3 hours (FIG. 10A). Microphotographs of the cells were taken with Hoffman modulation-equipped phase-contrast microscope (FIG. 10B; x20 magnification is shown).

[3] = Tissue accumulation after intraperitoneal injection; format: in vivo; details: mice, hydrochloride
Description: To assure brain bioavailability of the inventive compounds, time-dependent brain, liver and […] AIP accumulation was measured after intraperitoneal injection of 2.0 mg AIP2. Mice were sacrificed at specific times following injection. Tissues (blood, brain and liver) were taken, and the lipids extracted, loaded on silica-gel column, washed with diethyl ether, and eluted with 10% ethyl acetate in hexane. The eluates were further purified using gradient HPLC on a C8 reverse phase column and the AIP-corresponding fraction was collected and quantitatively analyzed by […], coupled with electrospray ionization-mass-spectroscopy using internal AIP standard.

AKT = AKT kinase activity / basal AKT phosphorylation in HUH-7 cells; format: cell-based, human; details: proliferating HUH-7 cells, 10 μM
[4] = system: CA1 cancer stem cell-derived carcinoid bodies ('carcinospheres'); experiment: Carcinoid sphere model of tumor-initiating glioblastoma stem cells; format: cell-based; details: Homo sapiens
Description: Human glioblastoma cell lines CA1 (also sometimes referred to as BT73) and L1 are cells are available from the Florida Center for Brain Tumor Research University of Florida Biorepository. Glioma cells (for example CA1, U87MG or L1), are suspended by trituration as single cells and plated at a density of about 25,000 cells/mL in low adhesion plates in Neurobasal® medium containing 1% methylcellulose and growth factors. The cultures are treated with single or repeated doses of AIPs (ranging from 0.1 to 20 […]) or vehicle (control) and maintained for 24 hours, 72 hours and 7 days. The number and size of ‘carcinoid’ spheres are quantitated by inverted phase contrast microscopy, and spheres collected for analysis for determination of survival and growth/proliferation.
This suppression of tumor-initiating glioblastoma multiforme stem/progenitor cells was determined using a ‘carcinoid sphere’ model in serum- and in anchorage-free media. The ability to block cancer stem cell activation and to destroy them is very useful for strategies to prevent glioblastoma recurrence. Here, AIPs blocked completely the activation of tumor-initiating CA1 cells and formation of carcinospheres at ≥2 μM concentrations. […] FIG. 9B is a set of representative photographs of the cells treated as indicated.
With respect to methods, generation of carcinoid spheres from GBM was performed essentially as described previously (Cao et al., Composite fatty acid ether amides suppress growth of liver cancer cells in vitro and in an in vivo allograft mouse model, Cell. Oncol. 36(3):247-257, 2013 and Reinartz et al., Functional Subclone Profiling for Prediction of Treatment-Induced Intratumor Population Shifts and Discovery of Rational Drug Combinations in Human Glioblastoma, Clinical Cancer Research: an official journal of the American Association for Cancer Research 23(2):562-574, 2017). […] The number and size of spheres were quantitated by inverted phase contrast microscopy. […]

Structure (SMILES): CCCCCCCC/C=C\CCCCCCCCOCC(O)CNC(C)C (stereo not shown) [AIP2, Octadecenyloxy-3-isopropylamine-propan-2-ol hydrochloride]
- Survival of primary human hepatocytes [1]: did not reduce survival
- Effect on adherent CA1 glioblastoma cells ([2]; 20 μM, hydrochloride): complete shutdown of metabolic activity; also recorded: destroyed all cancer cells
- IC50 ([2]; read-out: IC50, growth and survival of human malignant glioblastoma cells (CA1)): 6.9 µM
- IC50 ([2]; read-out: IC50, proliferating glioblastoma cells): 7.1 µM
- Blood-brain barrier penetration ([3]; 24 hours after intraperitoneal injection): able to cross the blood-brain barrier; also recorded: significant blood-brain-barrier (BBB) penetration
- Tissue accumulation of non-metabolized compound ([3]; intraperitoneal injection of 2 mg, up to 24 hours): did accumulate in brain tissue; also recorded: accumulated in brain and liver in a time-dependent fashion
- Basal AKT phosphorylation (AKT): blocked basal AKT phosphorylation
- IC50 ([4]; read-out: IC50, block of development of brain tumor-initiating stem cells): 1.1 µM
- IC50 ([4]; read-out: IC50, formation and growth of CA1 cancer stem cell-derived carcinoid bodies): 1.1 µM
- IC50 ([4]; read-out: IC50, inhibition of brain tumor-initiating cancer stem cells): 1.1 µM
